# Results as given in patent publication US20230233569A1 (Revolution Medicines, Inc., priority 2020, published 2023).
# What was measured:
# [1] = target: KRAS G13D (Homo sapiens, UniProt P01116+P62937, G13D); test: Disruption of BRAF RBD interaction with Ras (FRET / MOA assay, with Cyclophilin A); format: biochemical; conditions: KRAS G13D; read-out: KRAS G13D FRET data IC50
# In short: (§1)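 TR-FRET readout: a drop in ratio relative to DMSO wells marks disruption of the K-Ras:BRAF RBD complex via compound-induced K-Ras–Cyclophilin A ternary complex. Dosing used ten 3-fold steps from 30 μM final, 3 h at 25 °C, then Eu-anti-His 10 nM plus APC-anti-GST 50 nM for another 1.5 h. Values are IC50s.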
# [2] = target: KRAS G13C (Homo sapiens, UniProt P01116+P62937, G13C); test: as above; format: biochemical; conditions: read-out: KRAS G13C FRET data, IC50
# KRAS G13C, sequence (P01116 1-169 isoform P01116-2 G13C): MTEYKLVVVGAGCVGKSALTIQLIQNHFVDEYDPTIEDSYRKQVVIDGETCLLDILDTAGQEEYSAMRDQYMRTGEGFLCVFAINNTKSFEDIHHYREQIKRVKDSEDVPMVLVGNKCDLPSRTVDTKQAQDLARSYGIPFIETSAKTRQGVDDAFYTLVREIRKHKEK
# KRAS G13C, sequence (P62937 whole entry): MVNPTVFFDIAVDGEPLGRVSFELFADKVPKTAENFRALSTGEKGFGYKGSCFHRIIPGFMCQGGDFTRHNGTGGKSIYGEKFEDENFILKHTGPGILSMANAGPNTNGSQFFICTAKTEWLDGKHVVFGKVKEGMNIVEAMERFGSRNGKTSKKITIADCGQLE
# In short: as §1
# [3] = target: KRAS WT (Homo sapiens, UniProt P01116+P62937); test: as above; format: biochemical; conditions: KRAS WT; read-out: KRAS WT FRET data IC50
# KRAS WT, sequence (P01116 1-169 isoform P01116-2 limits assumed): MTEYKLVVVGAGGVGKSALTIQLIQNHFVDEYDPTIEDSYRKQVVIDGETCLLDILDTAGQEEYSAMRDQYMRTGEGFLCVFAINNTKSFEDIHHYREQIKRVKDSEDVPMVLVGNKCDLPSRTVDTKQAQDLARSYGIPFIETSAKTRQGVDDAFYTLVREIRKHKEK
# KRAS WT, sequence (P62937 whole entry): as the sequence (P62937 whole entry) above
# In short: as §1
# [4] = target: KRAS G12D (Homo sapiens, UniProt P01116+P62937, G12D); test: as above; format: biochemical; conditions: read-out: KRAS G12D FRET data, IC50
# KRAS G12D, sequence (P01116 1-169 isoform P01116-2 G12D limits assumed): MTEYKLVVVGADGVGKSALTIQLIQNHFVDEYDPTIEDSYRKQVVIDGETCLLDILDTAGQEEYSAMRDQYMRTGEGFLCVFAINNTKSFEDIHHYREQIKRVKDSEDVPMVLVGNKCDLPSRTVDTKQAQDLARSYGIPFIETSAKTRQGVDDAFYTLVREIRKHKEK
# KRAS G12D, sequence (P62937 whole entry): as the sequence (P62937 whole entry) above
# In short: as §1
# [5] = target: NRAS G12C (Homo sapiens, UniProt P01111+P62937, G12C); test: as above; format: biochemical; conditions: NRAS G12C; read-out: NRAS G12C FRET data IC50
# NRAS G12C, sequence (P01111 whole entry G12C): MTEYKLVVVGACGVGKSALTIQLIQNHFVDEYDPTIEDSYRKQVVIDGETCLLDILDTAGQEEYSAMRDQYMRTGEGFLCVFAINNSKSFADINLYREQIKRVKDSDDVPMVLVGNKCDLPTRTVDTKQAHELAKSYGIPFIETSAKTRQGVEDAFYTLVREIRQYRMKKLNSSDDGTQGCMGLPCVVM
# NRAS G12C, sequence (P62937 whole entry): as the sequence (P62937 whole entry) above
# [6] = target: KRAS G12C (Homo sapiens, UniProt P01116+P62937, G12C); test: as above; format: biochemical; conditions: read-out: KRAS G12C FRET data, IC50
# KRAS G12C, sequence (P01116 1-169 isoform P01116-2 G12C): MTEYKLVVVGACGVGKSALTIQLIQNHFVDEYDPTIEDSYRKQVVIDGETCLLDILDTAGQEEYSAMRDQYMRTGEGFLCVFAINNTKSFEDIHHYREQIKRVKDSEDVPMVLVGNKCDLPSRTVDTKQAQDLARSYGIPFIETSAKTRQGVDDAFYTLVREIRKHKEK
# KRAS G12C, sequence (P62937 whole entry): as the sequence (P62937 whole entry) above
# In short: as §1
# [7] = target: KRAS G12S (Homo sapiens, UniProt P01116+P62937, G12S); test: as above; format: biochemical; conditions: read-out: KRAS G12S FRET data, IC50
# KRAS G12S, sequence (P01116 1-169 isoform P01116-2 G12S limits assumed): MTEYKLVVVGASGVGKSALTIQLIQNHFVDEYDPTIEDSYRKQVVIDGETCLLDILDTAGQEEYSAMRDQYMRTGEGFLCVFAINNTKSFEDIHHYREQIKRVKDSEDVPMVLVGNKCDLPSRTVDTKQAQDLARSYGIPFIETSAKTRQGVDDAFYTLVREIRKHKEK
# KRAS G12S, sequence (P62937 whole entry): as the sequence (P62937 whole entry) above
# In short: as §1
# [8] = target: KRAS G12V (Homo sapiens, UniProt P01116+P62937, G12V); test: as above; format: biochemical; conditions: KRAS G12V; read-out: KRAS G12V FRET data IC50
# KRAS G12V, sequence (P01116 1-169 isoform P01116-2 G12V limits assumed): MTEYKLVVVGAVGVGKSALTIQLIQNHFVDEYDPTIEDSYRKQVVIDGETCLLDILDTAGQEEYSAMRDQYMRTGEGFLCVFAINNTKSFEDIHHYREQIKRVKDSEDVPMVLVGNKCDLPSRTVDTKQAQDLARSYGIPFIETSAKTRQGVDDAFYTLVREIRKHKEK
# KRAS G12V, sequence (P62937 whole entry): as the sequence (P62937 whole entry) above
# In short: as §1
# [9] = tested on: NCI-H358 (K-Ras G12C); test: CellTiter-Glo cell viability assay, 5-day treatment; format: cell-based; conditions: Homo sapiens, NCI-H358, 120 h, 5-day treatment; read-out: H358 Cell Viability assay data (K-Ras G12C, IC50)
# In short: (§2)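 Compounds were dispensed directly onto seeded cells and incubated for 5 days, then plates were equilibrated to room temperature for about 30 minutes before luminescence reading. Signals were expressed as percent of the mean DMSO control and fitted with a four-parameter logistic curve.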
# [10] = tested on: Capan-1 (K-Ras G12V); test: as above; format: cell-based; conditions: Homo sapiens, CAPAN-1, 120 h, 5-day treatment; read-out: Capan-1 Cell Viability assay data (K-Ras G12V, IC50)
# In short: as §2
# [11] = target: NRAS Q61R (Homo sapiens, UniProt P01111+P62937, Q61R); test: Disruption of BRAF RBD interaction with Ras (FRET / MOA assay, with Cyclophilin A); format: biochemical; conditions: NRAS Q61R; read-out: NRAS Q61R FRET data IC50
# NRAS Q61R, sequence (P01111 whole entry Q61R): as the sequence (P01111 whole entry G12C) above, with C12G, Q61R counted along it
# NRAS Q61R, sequence (P62937 whole entry): as the sequence (P62937 whole entry) above
# In short: (§3)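 TR-FRET in 25 mM HEPES pH 7.3, 100 mM NaCl, 5 mM MgCl2, 0.1% BSA: 25 μM Cyclophilin A, 12.5 nM His6-Ras-GMPPNP, 50 nM GST-BRAF RBD with compound (10-point 3-fold series from 30 μM), 3 h at 25° C. Anti-His Eu/anti-GST APC added, 1.5 h more; IC50 from decreased FRET ratio versus DMSO.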
# [12] = target: NRAS Q61K (Homo sapiens, UniProt P01111+P62937, Q61K); test: as above; format: biochemical; conditions: NRAS Q61K; read-out: NRAS Q61K FRET data IC50
# NRAS Q61K, sequence (P01111 whole entry Q61K): as the sequence (P01111 whole entry G12C) above, with C12G, Q61K counted along it
# NRAS Q61K, sequence (P62937 whole entry): as the sequence (P62937 whole entry) above
# In short: as §3
# [13] = target: NRAS WT (Homo sapiens, UniProt P01111+P62937); test: as above; format: biochemical; conditions: NRAS WT; read-out: NRAS WT FRET data IC50
# NRAS WT, sequence (P01111 whole entry): as the sequence (P01111 whole entry G12C) above, with C12G counted along it
# NRAS WT, sequence (P62937 whole entry): as the sequence (P62937 whole entry) above
# In short: as §3
# [14] = target: KRAS Q61H (Homo sapiens, UniProt P01116+P62937, Q61H); test: as above; format: biochemical; conditions: KRAS Q61H; read-out: KRAS Q61H FRET data IC50
# KRAS Q61H, sequence (P01116 1-169 isoform P01116-2 Q61H limits assumed): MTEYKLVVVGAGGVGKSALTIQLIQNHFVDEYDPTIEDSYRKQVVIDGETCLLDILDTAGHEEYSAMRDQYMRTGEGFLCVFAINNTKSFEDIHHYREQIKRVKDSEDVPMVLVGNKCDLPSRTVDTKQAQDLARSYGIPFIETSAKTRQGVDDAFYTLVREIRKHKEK
# KRAS Q61H, sequence (P62937 whole entry): as the sequence (P62937 whole entry) above
# In short: as §3
# KRAS G13D, sequence (P01116 1-169 isoform P01116-2 G13D limits assumed): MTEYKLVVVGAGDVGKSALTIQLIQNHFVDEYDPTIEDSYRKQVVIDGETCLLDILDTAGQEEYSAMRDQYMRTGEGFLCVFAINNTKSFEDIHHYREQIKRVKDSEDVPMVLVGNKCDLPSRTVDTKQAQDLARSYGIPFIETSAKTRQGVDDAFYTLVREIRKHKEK
# KRAS G13D, sequence (P62937 whole entry): as the sequence (P62937 whole entry) above
SMILES,IC50 [1] [µM],IC50 [2] [µM],IC50 [3] [µM],IC50 [4] [µM],IC50 [5] [µM],IC50 [6] [µM],IC50 [7] [µM],IC50 [8] [µM],IC50 [9] [µM],IC50 [10] [µM],IC50 [11] [µM],IC50 [12] [µM],IC50 [13] [µM],IC50 [14] [µM]
"CCn1c(-c2cccnc2[C@H](C)OC)c2c3cc(ccc31)-c1csc(n1)C[C@H](NC(=O)[C@H](C(C)C)N(C)C(=O)N1CC[C@H]3CN(C)C[C@H]31)C(=O)N1CCC[C@H](N1)C(=O)OCC(C)(C)C2 (atropisomer, axis not shown) [Example A471]",0.1 to 1,0.1 to 1,0.1 to 1,0.1 to 1,0.01 to 0.1,0.01 to 0.1,0.1 to 1,0.1 to 1,0.1 to 1,0.1 to 1,0.1 to 1,0.01 to 0.1,0.01 to 0.1,0.01 to 0.1
CCn1c(-c2cccnc2[C@H](C)OC)c2c3cc(ccc31)-c1csc(n1)C[C@H](NC(=O)[C@H](C(C)C)N(C)C(=O)N1CCC3(CC1)CN(C)CCO3)C(=O)N1CCC[C@H](N1)C(=O)OCC(C)(C)C2 [Example A433],0.1 to 1,0.1 to 1,0.1 to 1,1 to 10,0.1 to 1,0.1 to 1,0.1 to 1,0.1 to 1,0.01 to 0.1,0.01 to 0.1,0.1 to 1,0.1 to 1,0.1 to 1,0.1 to 1
"CCn1c(-c2cccnc2[C@H](C)OC)c2c3cc(ccc31)-c1csc(n1)C[C@H](NC(=O)[C@H](C(C)C)N(C)C(=O)N1CC(C#N)C1)C(=O)N1CCC[C@H](N1)C(=O)OCC(C)(C)C2 (atropisomer, axis not shown) [Example A382]",0.1 to 1,0.1 to 1,0.1 to 1,0.1 to 1,0.01 to 0.1,0.01 to 0.1,0.1 to 1,0.1 to 1,< 0.01,0.01 to 0.1,0.1 to 1,0.01 to 0.1,0.1 to 1,0.01 to 0.1
"CCn1c(-c2cccnc2[C@H](C)OC)c2c3cc(ccc31)-c1csc(n1)C[C@H](NC(=O)[C@H](CC1CC1)N(C)C(=O)N1CC(OC)C1)C(=O)N1CCC[C@H](N1)C(=O)OCC(C)(C)C2 (atropisomer, axis not shown) [Example A578]",0.01 to 0.1,0.01 to 0.1,0.01 to 0.1,0.1 to 1,< 0.01,0.01 to 0.1,0.01 to 0.1,0.01 to 0.1,0.01 to 0.1,0.1 to 1,0.01 to 0.1,0.01 to 0.1,0.01 to 0.1,0.01 to 0.1
CCn1c(-c2cccnc2[C@H](C)OC)c2c3cc(ccc31)-c1csc(n1)C[C@H](NC(=O)[C@H](C(C)C)N(C)C(=O)N1CC[C@H]1C(=O)NC)C(=O)N1CC(C)C[C@H](N1)C(=O)OCC(C)(C)C2 (stereo partly drawn) [Example A282],1 to 10,1 to 10,1 to 10,1 to 10,0.1 to 1,0.1 to 1,1 to 10,1 to 10,0.1 to 1,0.1 to 1,1 to 10,1 to 10,1 to 10,0.1 to 1
"CCn1c(-c2cccnc2[C@H](C)OC)c2c3cc(ccc31)-c1csc(n1)C[C@H](NC(=O)[C@H](C(C)C)N(C)C(=O)N1CC([C@@H](C)CO)C1)C(=O)N1CCC[C@H](N1)C(=O)OCC(C)(C)C2 (single isomer, unassigned) [Example A487]",0.1 to 1,0.1 to 1,0.01 to 0.1,0.1 to 1,0.01 to 0.1,0.01 to 0.1,0.1 to 1,0.01 to 0.1,< 0.01,0.01 to 0.1,0.01 to 0.1,0.01 to 0.1,0.01 to 0.1,0.01 to 0.1
